Laboratory results as given in patent publication US10821115B2, “Compounds that inhibit Mcl-1 protein” (priority 2017, dated 2020).
Where two headings read alike, the source gives them in different places.

Assays:
[1] = molecular target: recombinant human Mcl-1 (residues 171-327) / Bim interaction (Homo sapiens (Human), UniProt Q07820); experiment: biochemical; assay type: binding; conditions: read-out: Mcl-1 HTRF IC50
[2] = tested on: human multiple myeloma cell line, OPM-2; experiment: Cell viability assay (OPM-2 10 FBS), CellTiter-Glo; assay type: cell-based
Procedure, shortened: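 OPM-2 cells at 3000 cells/well in RPMI 1640 with 10% FBS were exposed to serially diluted compounds for 16 h at 37 °C, 5% CO2.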

[3] = 0.1 nM Mcl-1(171-327), 0.05 nM biotin-Bim (51-76)
[4] = Homo sapiens, OPM-2, 16 h, read-out: OPM-2 10% FBS IC50 IP, OPM-2 cells, 10% FBS, 16 h incubation
[5] = TR-FRET, Mcl-1(171-327) / biotin-Bim (51-76)
[6] = Homo sapiens, OPM-2, 16 h, read-out: OPM-2 10% FBS IC50 IP, OPM-2 cells, 10% FBS, 16 h, CellTiter-Glo
[7] = read-out: OPM-2 10% FBS IC50 IP, OPM-2 cells, 10% FBS, 16 h, CellTiter-Glo

Sequence of recombinant human Mcl-1 (residues 171-327) / Bim interaction (Q07820 171-327): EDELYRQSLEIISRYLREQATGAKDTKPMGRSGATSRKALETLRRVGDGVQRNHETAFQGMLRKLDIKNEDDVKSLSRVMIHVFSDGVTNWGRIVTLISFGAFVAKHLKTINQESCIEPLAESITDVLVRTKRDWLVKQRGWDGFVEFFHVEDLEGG

Compound	IC50 [1, 3] [nM]	IC50 [2, 4] [nM]	IC50 [1, 5] [nM]	further results
CCOC1(CN2CCN(C(C)C)CC2)/C=C/C[C@H](C)[C@@H](C)S(=O)(=O)NC(=O)c2ccc3c(c2)N(C[C@@H]2CC[C@H]21)C[C@@]1(CCCc2cc(Cl)ccc21)CO3 (stereo in doubt) [Example 115, (1S,3′R,6′R,7′R,8′E,11′S,12′R)-6-chloro-7′-ethoxy-11′,12′-dimethyl-7′-((4-(1-methylethyl)-1-piperazinyl)methyl)-3,4-dihydro-2H,15′H-spiro[naphthalene-1,22′-[20]oxa[13]thia[1,14]diazatetracyclo [14.7.2.0~3,6~.0~19,24~]pentacosa[8,16,18,24]tetraen]-15′-one 13′,13′-dioxide]	1.37	686	–	–
CO[C@]1(CN2CCN3CC[C@H](F)C[C@@H]3C2)/C=C/C[C@H](C)[C@@H](C)S(=O)(=O)NC(=O)c2ccc3c(c2)N(C[C@@H]2CC[C@H]21)C[C@@]1(CCCc2cc(Cl)ccc21)CO3 (single isomer, unassigned) [Example 325]	0.18	–	–	IC50 ([2]; read-out: OPM-2 10% FBS IC50 IP, OPM-2 cells, 10% FBS, 16 h incubation): 192 nM
CO[C@@]1(CN2CC3(C2)CN(C(=O)OC(C)(C)C)C3)/C=C/C[C@H](C)[C@@H](C)S(=O)(=O)NC(=O)c2ccc3c(c2)N(C[C@@H]2CC[C@H]21)C[C@@]1(CCCc2cc(Cl)ccc21)CO3 [Example 204, tert-butyl 6-(((1S,3′R,6′R,7′S,8′E,11′S, 12′R)-6-chloro-7′-methoxy-11′,12′-dimethyl-13′,13′-dioxido-15′-oxo-3,4-dihydro-2H-spiro[naphthalene-1,22′-[20]oxa[13]thia[1,14]diazatetracyclo [14.7.2.0~3,6~.0~19,24~]pentacosa[8,16,18,24]tetraen]-7′-yl)methyl)-2,6-diazaspiro[3.3]heptane-2-carboxylate]	0.23	319	–	–
CO[C@@]1(c2nccs2)/C=C/C[C@H](C)[C@@H](C)S(=O)(=O)NC(=O)c2ccc3c(c2)N(C[C@@H]2CC[C@H]21)C[C@@]1(CCCc2cc(Cl)ccc21)CO3 (single isomer, unassigned) [Example 100497]	–	–	0.064	IC50 [2, 6]: 106 nM
C[C@@H]1[C@@H](C)C/C=C/[C@@](O)(C#CCCN2CCOCC2)[C@@H]2CC[C@H]2CN2C[C@@]3(CCCc4cc(Cl)ccc43)COc3ccc(cc32)C(=O)NS1(=O)=O [Example 100327, (1S,3′R,6′R,7′S,8′E,11′S,12′R)-6-chloro-7′-hydroxy-11′,12′-dimethyl-7′-(4-(4-morpholinyl)-1-butyn-1-yl)-3,4-dihydro-2H,15′H-spiro[naphthalene-1,22′-[20]oxa[13]thia[1,14]diazatetracyclo [14.7.2.0~3,6~.0~19,24~]pentacosa[8,16,18,24]tetraen]-15′-one 13′,13′-dioxide]	–	–	0.295	IC50 [2, 7]: 550 nM
C[C@@H]1[C@@H](C)CCC[C@@](O)(Cc2nccn2C)[C@@H]2CC[C@H]2CN2C[C@@]3(CCCc4cc(Cl)ccc43)COc3ccc(cc32)C(=O)NS1(=O)=O [Example 100163, (1S,3′R,6′R,7′R,11′S,12′R)-6-chloro-7′-hydroxy-11′,12′-dimethyl-7′-((1-methyl-1H-imidazol-2-yl)methyl)-3,4-dihydro-2H,15′H-spiro[naphthalene-1,22′-[20]oxa[13]thia[1,14]diazatetracyclo [14.7.2.0~3,6~.0~19,24~]pentacosa[16,18,24]trien]-15′-one 13′,13′-dioxide]	–	–	2.79	IC50 [2, 7]: 1000 nM
C[C@@H]1[C@@H](C)C/C=C/[C@@](O)(C#CCC2CCOCC2)[C@@H]2CC[C@H]2CN2C[C@@]3(CCCc4cc(Cl)ccc43)COc3ccc(cc32)C(=O)NS1(=O)=O [Example 100432, (1S,3′R,6′R,7′S,8′E,11′S,12′R)-6-chloro-7′-hydroxy-11′,12′-dimethyl-7′-(3-(tetrahydro-2H-pyran-4-yl)-1-propyn-1-yl)-3,4-dihydro-2H,15′H-spiro[naphthalene-1,22′-[20]oxa[13]thia[1,14]diazatetracyclo [14.7.2.0~3,6~.0~19,24~]pentacosa[8,16,18,24]tetraen]-15′-one 13′,13′-dioxide]	–	–	0.228	IC50 [2, 6]: 711 nM
CCO[C@]1(CN2CCN3CCOC[C@@H]3C2)CCC[C@H](C)[C@@H](CCOC)S(=O)(=O)NC(=O)c2ccc3c(c2)N(C[C@@H]2CC[C@H]21)C[C@@]1(CCCc2cc(Cl)ccc21)CO3 [Example 518, (1S,3′R,6′R,7′R,11′S,12′R)-6-chloro-7′-ethoxy-7′-((9aS)-hexahydropyrazino[2,1-c][1,4]oxazin-8(1H)-ylmethyl)-12′-(2-methoxyethyl)-11′-methyl-3,4-dihydro-2H,15′H-spiro[naphthalene-1,22′-[20]oxa[13]thia[1,14]diazatetracyclo[14.7.2.0˜3,6˜.0˜19,24˜]pentacosa[16,18,24]trien]-15′-one 13′,13′-dioxide]	0.164	224	–	–
Cc1onc(C[C@@]2(O)/C=C/C[C@H](C)[C@@H](C)S(=O)(=O)NC(=O)c3ccc4c(c3)N(C[C@@H]3CC[C@H]32)C[C@@]2(CCCc3cc(Cl)ccc32)CO4)c1C [Example 100573, (1S,3′R,6′R,7′R,8′E,11′S,12′R)-6-chloro-7′-((4,5-dimethyl-1,2-oxazol-3-yl)methyl)-7′-hydroxy-11′,12′-dimethyl-3,4-dihydro-2H,15′H-spiro[naphthalene-1,22′-[20]oxa[13]thia[1,14]diazatetracyclo [14.7.2.0~3,6~.0~19,24~]pentacosa[8,16,18,24]tetraen]-15′-one 13′,13′-dioxide]	–	–	2.07	IC50 [2, 6]: 7390 nM
CO[C@@]1(CN2CCn3ccnc3C2)/C=C/C[C@H](C)[C@@H](C)S(=O)(=O)NC(=O)c2ccc3c(c2)N(C[C@@H]2CC[C@H]21)C[C@@]1(CCCc2cc(Cl)ccc21)CO3 [Example 201, (1S,3′R,6′R,7′S,8′E,11′S,12′R)-6-chloro-7′-(5,6-dihydroimidazo[1,2-a]pyrazin-7(8H)-ylmethyl)-7′-methoxy-11′,12′-dimethyl-3,4-dihydro-2H,15′H-spiro[naphthalene-1,22′-[20]oxa[13]thia[1,14]diazatetracyclo [14.7.2.0~3,6~.0~19,24~]pentacosa[8,16,18,24]tetraen]-15′-one 13′,13′-dioxide]	0.119	244	–	–
CO[C@@]1(CN2CCN3C(=O)OC[C@@H]3C2)/C=C/C[C@H](C)[C@@H](C)S(=O)(=O)NC(=O)c2ccc3c(c2)N(C[C@@H]2CC[C@H]21)C[C@@]1(CCCc2cc(Cl)ccc21)CO3 [Example 63, (1S,3′R,6′R,7′S,8′E,11′S,12′R)-6-chloro-7′-methoxy-11′,12′-dimethyl-7′-(((8aS)-3-oxotetrahydro[1,3]oxazolo[3,4-a]pyrazin-7(1H)-yl)methyl)-3,4-dihydro-2H,15′H-spiro[naphthalene-1,22′-[20]oxa[13]thia[1,14]diazatetracyclo [14.7.2.0~3,6~.0~19,24~]pentacosa[8,16,18,24]tetraen]-15′-one 13′,13′-dioxide]	0.173	582	–	–
C[C@@H]1[C@@H](C)C/C=C/[C@@](O)(CC(=O)O)[C@@H]2CC[C@H]2CN2C[C@@]3(CCCc4cc(Cl)ccc43)COc3ccc(cc32)C(=O)NS1(=O)=O [Example 100101, ((1S,3′R,6′R,7′S,8′E,11′S,12′R)-6-chloro-7′-hydroxy-11′,12′-dimethyl-13′,13′-dioxido-15′-oxo-3,4-dihydro-2H-spiro[naphthalene-1,22′-[20]oxa[13]thia[1,14]diazatetracyclo [14.7.2.0~3,6~.0~19,24~]pentacosa[8,16,18,24]tetraen]-7′-yl)acetic acid]	–	–	0.062	IC50 [2, 6]: 2600 nM
CO[C@]1(CN2CCN(Cc3cscn3)CC2)/C=C/C[C@H](C)[C@@H](C)S(=O)(=O)NC(=O)c2ccc3c(c2)N(C[C@@H]2CC[C@H]21)C[C@@]1(CCCc2cc(Cl)ccc21)CO3 [Example 72, (1S,3′R,6′R,7′R,8′E,11′S,12′R)-6-chloro-7′-methoxy-11′,12′-dimethyl-7′-((4-(1,3-thiazol-4-ylmethyl)-1-piperazinyl)methyl)-3,4-dihydro-2H,15′H-spiro[naphthalene-1,22′-[20]oxa[13]thia[1,14]diazatetracyclo [14.7.2.0~3,6~.0~19,24~]pentacosa[8,16,18,24]tetraen]-15′-one 13′,13′-dioxide]	0.8	185	–	–
CO[C@@]1(CN2CC3(C2)CN(C)C(=O)O3)/C=C/C[C@H](C)[C@@H](C)S(=O)(=O)NC(=O)c2ccc3c(c2)N(C[C@@H]2CC[C@H]21)C[C@@]1(CCCc2cc(Cl)ccc21)CO3 [Example 291, (1S,3′R,6′R,7′S,8′E,11′S,12′R)-6-chloro-7′-methoxy-11′,12′-dimethyl-7′-((7-methyl-6-oxo-5-oxa-2,7-diazaspiro[3.4]oct-2-yl)methyl)-3,4-dihydro-2H,15′H-spiro[naphthalene-1,22′-[20]oxa[13]thia[1,14]diazatetracyclo [14.7.2.0~3,6~.0~19,24~]pentacosa[8,16,18,24]tetraen]-15′-one 13′,13′-dioxide]	0.083	104	–	–
CO[C@@]1(CN2CCc3ncncc3C2)/C=C/C[C@H](C)[C@@H](C)S(=O)(=O)NC(=O)c2ccc3c(c2)N(C[C@@H]2CC[C@H]21)C[C@@]1(CCCc2cc(Cl)ccc21)CO3 [Example 223, (1S,3′R,6′R,7′S,8′E,11′S,12′R)-6-chloro-7′-(7,8-dihydropyrido[4,3-d]pyrimidin-6(5H)-ylmethyl)-7′-methoxy-11′,12′-dimethyl-3,4-dihydro-2H,15′H-spiro[naphthalene-1,22′-[20]oxa[13]thia[1,14]diazatetracyclo [14.7.2.0~3,6~.0~19,24~]pentacosa[8,16,18,24]tetraen]-15′-one 13′,13′-dioxide]	0.251	258	–	–
